Target: human GLP-1 receptor (Homo sapiens (Human), UniProt P43220)
Details: read-out: Mean EC50; cAMP, HTRF detection, 30 min at 37° C., HEK-293 cells expressing cloned human GLP-1 receptor

Chain of human GLP-1 receptor (P43220 24-463): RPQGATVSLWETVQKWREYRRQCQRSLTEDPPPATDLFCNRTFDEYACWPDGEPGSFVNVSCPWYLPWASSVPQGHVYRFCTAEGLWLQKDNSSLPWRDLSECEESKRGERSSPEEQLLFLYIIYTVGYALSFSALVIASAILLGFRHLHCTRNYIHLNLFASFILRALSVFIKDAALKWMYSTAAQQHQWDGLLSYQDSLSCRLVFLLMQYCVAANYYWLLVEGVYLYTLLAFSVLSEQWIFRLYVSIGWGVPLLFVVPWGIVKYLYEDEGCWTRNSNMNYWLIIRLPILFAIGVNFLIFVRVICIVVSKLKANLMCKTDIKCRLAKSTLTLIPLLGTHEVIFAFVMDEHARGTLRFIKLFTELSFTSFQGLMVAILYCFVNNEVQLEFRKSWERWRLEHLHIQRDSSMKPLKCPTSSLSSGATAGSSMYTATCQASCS

Question: How did the EC50 turn out when CC[C@@H](c1ccccc1)N1Cc2cc3c(cc2C[C@H]1C(=O)N[C@@H](Cc1ccc(-c2ccnc4ccccc24)cc1)C(=O)O)OC[C@H](c1ccc(OCc2ccc(Cl)c(Cl)c2)cc1)O3 [Example 211, (S)-2-{[(3S,8S)-3-[4-(3,4-Dichloro-benzyloxy)-phenyl]-7-((S)-1-phenyl-propyl)-2,3,6,7,8,9-hexahydro-[1,4]dioxino[2,3-g]isoquinoline-8-carbonyl]-amino}-3-(4-quinolin-4-yl-phenyl)-propionic acid] was run?
Answer: 21 nM

Question: Which EC50 does the source give for Cc1nc(C(=O)N2Cc3cc4c(cc3C[C@H]2C(=O)N[C@@H](Cc2ccc(-c3ccnc(C)c3C)cc2)C(=O)O)OC[C@@H](c2ccc(OCc3ccc(Cl)c(Cl)c3)cc2)O4)c(C)o1 [Example 428, (S)-2-{[(3R,8S)-3-[4-(3,4-Dichloro-benzyloxy)-phenyl]-7-(2,5-dimethyl-oxazole-4-carbonyl)-2,3,6,7,8,9-hexahydro-[1,4]dioxino[2,3-g]isoquinoline-8-carbonyl]-amino}-3-[4-(2,3-dimethyl-pyridin-4-yl)-phenyl]-propionic acid] here?
Answer: 22 nM

Question: How did the EC50 turn out when CC[C@@H](c1ccccc1)N1Cc2cc3c(cc2C[C@H]1C(=O)N[C@@H](Cc1ccc(-c2ccnc(C)c2C)cc1)C(=O)O)OC[C@H](c1ccc(OCC(C)C)cc1)O3 [Example 172, (S)-3-[4-(2,3-Dimethyl-pyridin-4-yl)-phenyl]-2-{[(3S,8S)-3-(4-isobutoxy-phenyl)-7-((S)-1-phenyl-propyl)-2,3,6,7,8,9-hexahydro-[1,4]dioxino[2,3-g]isoquinoline-8-carbonyl]-amino}-propionic acid] was run?
Answer: 132 nM

Question: Which EC50 does the source give for N#Cc1ccc(-c2ccc(C[C@H](NC(=O)[C@@H]3Cc4cc5c(cc4CN3C(=O)c3ccoc3)OC(c3ccc(OCc4ccc(Cl)c(Cl)c4)cc3)CO5)C(=O)O)cc2)cc1 (stereo in doubt) [Example 27, (S)-3-(4′-Cyano-biphenyl-4-yl)-2-{[(S)-3-[4-(3,4-dichloro-benzyloxy)-phenyl]-7-(furan-3-carbonyl)-2,3,6,7,8,9-hexahydro-[1,4]dioxino[2,3-g]isoquinoline-8-carbonyl]-amino}-propionic acid] here?
Answer: 843 nM

Question: For Cc1nccc(-c2ccc(C[C@H](NC(=O)[C@@H]3Cc4cc5c(cc4CN3C(=O)Nc3cc(F)cc(F)c3)O[C@@H](c3ccc(OCc4ccc(Cl)c(Cl)c4)cc3)CO5)C(=O)O)cc2)c1C [Example 255, (S)-2-{[(3S,8S)-3-[4-(3,4-Dichloro-benzyloxy)-phenyl]-7-(3,5-difluoro-phenylcarbamoyl)-2,3,6,7,8,9-hexahydro-[1,4]dioxino[2,3-g]isoquinoline-8-carbonyl]-amino}-3-[4-(2,3-dimethyl-pyridin-4-yl)-phenyl]-propionic acid], which EC50 is on record?
Answer: 317 nM

Question: How did the EC50 turn out when CC[C@@H](c1ccccc1)N1Cc2cc3c(cc2C[C@H]1C(=O)N[C@@H](Cc1ccc(-c2ccncc2)cc1)C(=O)O)OC[C@H](c1ccc(OCc2ccc(Cl)c(Cl)c2)cc1)O3 [Example 73, (S)-2-{[(3S,8S)-3-[4-(3,4-Dichloro-benzyloxy)-phenyl]-7-((S)-1-phenyl-propyl)-2,3,6,7,8,9-hexahydro-[1,4]dioxino[2,3-g]isoquinoline-8-carbonyl]-amino}-3-(4-pyridin-4-yl-phenyl)-propionic acid] was run?
Answer: 76 nM

Question: How did the EC50 turn out when CC(=O)Nc1ccc(S(=O)(=O)N2Cc3cc4c(cc3C[C@H]2C(=O)N[C@@H](Cc2ccc(-c3ccc(C#N)cc3)cc2)C(=O)O)OCC(c2ccc(OCc3ccc(Cl)c(Cl)c3)cc2)O4)cc1 (stereo in doubt) [Example 115, (S)-2-({(S)-7-(4-Acetylamino-benzenesulfonyl)-3-[4-(3,4-dichloro-benzyloxy)-phenyl]-2,3,6,7,8,9-hexahydro-[1,4]dioxino[2,3-g]isoquinoline-8-carbonyl}-amino)-3-(4′-cyano-biphenyl-4-yl)-propionic acid] was run?
Answer: 163 nM

Question: How did the EC50 turn out when Cc1nccc(-c2ccc(C[C@H](NC(=O)[C@@H]3Cc4cc5c(cc4CN3C(=O)[C@H]3CCCN3C(=O)OC(C)(C)C)O[C@@H](c3ccc(OCc4ccc(Cl)c(Cl)c4)cc3)CO5)C(=O)O)cc2)c1C [Example 279, (R)-2-{(3S,8S)-8-{(S)-1-Carboxy-2-[4-(2,3-dimethyl-pyridin-4-yl)-phenyl]-ethylcarbamoyl}-3-[4-(3,4-dichloro-benzyloxy)-phenyl]-2,3,8,9-tetrahydro-6H-[1,4]dioxino[2,3-g]isoquinoline-7-carbonyl}-pyrrolidine-1-carboxylic acid tert-butyl ester] was run?
Answer: 15 nM

Question: How did the EC50 turn out when Cc1nccc(Oc2ccc(C[C@H](NC(=O)[C@@H]3Cc4cc5c(cc4CN3C(=O)OC(C)(C)C)O[C@@H](c3ccc(OCc4ccc(Cl)c(Cl)c4)cc3)CO5)C(=O)O)cc2)c1C [Example 403, (3S,8S)-8-{(S)-1-Carboxy-2-[4-(2,3-dimethyl-pyridin-4-yloxy)-phenyl]-ethylcarbamoyl}-3-[4-(3,4-dichloro-benzyloxy)-phenyl]-2,3,8,9-tetrahydro-6H-[1,4]dioxino[2,3-g]isoquinoline-7-carboxylic acid tert-butyl ester] was run?
Answer: 138 nM

Question: With Cc1nccc(-c2ccc(C[C@H](NC(=O)[C@@H]3Cc4cc5c(cc4CN3C(=O)Cc3ccccc3)O[C@@H](c3ccc(OCc4ccc(Cl)c(Cl)c4)cc3)CO5)C(=O)O)cc2)c1C [Example 155, (S)-2-({(3S,8S)-3-[4-(3,4-Dichloro-benzyloxy)-phenyl]-7-phenylacetyl-2,3,6,7,8,9-hexahydro-[1,4]dioxino[2,3-g]isoquinoline-8-carbonyl}-amino)-3-[4-(2,3-dimethyl-pyridin-4-yl)-phenyl]-propionic acid] as the compound, how does the EC50 read?
Answer: 525 nM

Question: Which EC50 does the source give for Cc1nc(NC(C)C)ccc1S(=O)(=O)N1Cc2cc3c(cc2C[C@H]1C(=O)N[C@@H](Cc1ccc(-c2ccc(C#N)cc2)cc1)C(=O)O)OC[C@H](c1ccc(OCc2ccc(Cl)c(Cl)c2)cc1)O3 [Example 142, (S)-3-(4′-Cyano-biphenyl-4-yl)-2-{[(3S,8S)-3-[4-(3,4-dichloro-benzyloxy)-phenyl]-7-(6-isopropylamino-2-methyl-pyridine-3-sulfonyl)-2,3,6,7,8,9-hexahydro-[1,4]dioxino[2,3-g]isoquinoline-8-carbonyl]-amino}-propionic acid] here?
Answer: 263 nM

Question: How did the EC50 turn out when Cc1nc(C(=O)N2Cc3cc4c(cc3C[C@H]2C(=O)N[C@@H](Cc2ccc(-c3ccnc(C)c3C)cc2)C(=O)O)OC[C@H](c2ccc(OCc3cc(Cl)cc(Cl)c3)cc2)O4)c(C)o1 [Example 384, (S)-2-{[(3S,8S)-3-[4-(3,5-Dichloro-benzyloxy)-phenyl]-7-(2,5-dimethyl-oxazole-4-carbonyl)-2,3,6,7,8,9-hexahydro-[1,4]dioxino[2,3-g]isoquinoline-8-carbonyl]-amino}-3-[4-(2,3-dimethyl-pyridin-4-yl)-phenyl]-propionic acid] was run?
Answer: 26 nM

Question: How did the EC50 turn out when Cc1nc(C(=O)N2Cc3cc4c(cc3C[C@H]2C(=O)N[C@@H](Cc2ccc(-c3ccnc(C)c3C)cc2)C(=O)O)OC[C@H](c2ccc(OCc3c(Cl)cccc3Cl)cc2)O4)c(C)o1 [Example 355, (S)-2-{[(3S,8S)-3-[4-(2,6-Dichloro-benzyloxy)-phenyl]-7-(2,5-dimethyl-oxazole-4-carbonyl)-2,3,6,7,8,9-hexahydro-[1,4]dioxino[2,3-g]isoquinoline-8-carbonyl]-amino}-3-[4-(2,3-dimethyl-pyridin-4-yl)phenyl]-propionic acid] was run?
Answer: 45 nM

— patent US9175003B2, “Substituted azoanthracene derivatives and intermediates for preparation thereof” (TransTech Pharma, LLC, priority 2009, dated 2015)
